In one assay the test system is Aβ40. In words: Cellular Aβ-lowering assay. The assay is classed as cell-based. As to conditions: HEK293 cells stably expressing human APP695, Aβ40 in supernatant by ELISA after 18-20 hrs; read-out: Cellular assay Abeta40 IC50. The method, boiled down:
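HEK293 cells stably expressing human wild-type APP695 were treated with compound for 18-20 h at 37 °C in 0.8% v/v DMSO. Secreted Aβ40 in the supernatant was measured by sandwich ELISA (Aβ40 C-terminus-specific capture, HRP-4G8 detection, TMB read at 450 nm) and quantified against a pure Aβ peptide standard curve.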
(In general: An ELISA detects its analyte on a solid surface through an enzyme-linked reagent.)

Assay [1] concerns the target T1, endogenous cellular BACE2 (Rattus norvegicus, UniProt Q6IE75).
T1 construct: endogenous cellular BACE2 in the Ins1e rat cell line; endogenous in cells; host or cells: INS-TMEM27 (INS1e-derived rat insulinoma cell line with doxycycline-inducible full-length human TMEM27)
T1 sequence (Q6IE75 63-514): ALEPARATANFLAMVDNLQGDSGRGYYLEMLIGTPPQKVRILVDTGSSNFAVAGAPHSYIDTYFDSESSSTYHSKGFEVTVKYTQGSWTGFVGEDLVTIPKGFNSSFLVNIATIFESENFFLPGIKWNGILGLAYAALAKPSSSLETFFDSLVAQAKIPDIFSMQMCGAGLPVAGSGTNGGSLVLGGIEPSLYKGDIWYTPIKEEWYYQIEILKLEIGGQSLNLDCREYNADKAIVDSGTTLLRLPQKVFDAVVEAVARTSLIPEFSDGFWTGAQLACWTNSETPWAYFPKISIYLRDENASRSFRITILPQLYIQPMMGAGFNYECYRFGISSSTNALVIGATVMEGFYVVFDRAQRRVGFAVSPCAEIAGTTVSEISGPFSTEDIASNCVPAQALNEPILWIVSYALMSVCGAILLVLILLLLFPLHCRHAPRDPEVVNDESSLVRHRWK
In words: Assay for BACE inhibition by measuring cellular TMEM27 cleavage. The assay is classed as cell-based. As to conditions: INS-TMEM27 (INS1e-derived) cells, shed human TMEM27 in supernatant by ELISA. The method in brief:
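INS1e rat cells with doxycycline-inducible human TMEM27 get inhibitor 2 h before doxycycline (500 ng/ml final), then 46 h further at 37° C. Shed TMEM27 in the supernatant is measured by sandwich ELISA, and the EC50 comes from a curve fit of the ELISA signal.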

Molecules are shown by their SMILES. Counter-ions that a name gives are not always drawn.

Regarding `COc1ccc(C(=O)Nc2ccc(F)c([C@@]3(C)N=C(N)COCC3(F)F)c2)nc1` [Example 90, (R)-N-(3-(3-Amino-6,6-difluoro-5-methyl-2,5,6,7-tetrahydro-1,4-oxazepin-5-yl)-4-fluorophenyl)-5-methoxypicolinamide formate], the IC50 was 5 nM in the assay on Aβ40 and 85.3 nM in assay [1].
With `C[C@]1(c2cc(NC(=O)c3cnc(Cl)cn3)ccc2F)N=C(N)COCC1(F)F` [Example 38, (R)-N-(3-(3-amino-6,6-difluoro-5-methyl-2,5,6,7-tetrahydro-1,4-oxazepin-5-yl)-4-fluorophenyl)-5-chloropyrazine-2-carboxamide formate], the IC50 in the assay on Aβ40 was determined as 55 nM; in assay [1] it was 170 nM.
On to `C[C@]1(c2cc(NC(=O)c3ncc(F)cc3Cl)ccc2F)N=C(N)COCC1(F)F` [Example 40, (R)-N-(3-(3-amino-6,6-difluoro-5-methyl-2,5,6,7-tetrahydro-1,4-oxazepin-5-yl)-4-fluorophenyl)-3-chloro-5-fluoropicolinamide formate], for which the IC50 in the assay on Aβ40 is 5.9 nM; in assay [1], 6.2 nM.
In the case of `CC1(C)OCC[C@@](C)(c2cc(NC(=O)c3ccc(Cl)cn3)ccc2F)N=C1N` [Example 47, 5-Chloro-pyridine-2-carboxylic acid [3-((S)-3-amino-2,2,5-trimethyl-2,5,6,7-tetrahydro-[1,4]oxazepin-5-yl)-4-fluoro-phenyl]-amide], the values for the IC50 (in the assay on Aβ40; in assay [1]) were 58 nM and 46 nM, respectively.
Regarding `CC[C@]1(c2cc(NC(=O)c3ncc(F)cc3Cl)ccc2F)N=C(N)COCC1(F)F` [Example 84, (R)-N-(3-(3-Amino-5-ethyl-6,6-difluoro-2,5,6,7-tetrahydro-1,4-oxazepin-5-yl)-4-fluorophenyl)-3-chloro-5-fluoropicolinamide], the results for the 50% inhibitory concentration (IC50) (in the assay on Aβ40; in assay [1]) were 130 nM and 60.2 nM, respectively.
With `C[C@]1(c2cc(NC(=O)C3(C(F)(F)F)CC3)ccc2F)N=C(N)COCC1(F)F` [Example 33, (R)-N-(3-(3-amino-6,6-difluoro-5-methyl-2,5,6,7-tetrahydro-1,4-oxazepin-5-yl)-4-fluorophenyl)-1-(trifluoromethyl)cyclopropanecarboxamide formate], the results for the IC50 (in the assay on Aβ40; in assay [1]) were 90 nM and 240 nM, respectively.
For `CC1(C)OCC(N)=N[C@](C)(c2cc(NC(=O)c3ccc(C#N)cn3)ccc2F)C1(F)F` [Example 111, (R)-N-(3-(3-amino-6,6-difluoro-5,7,7-trimethyl-2,5,6,7-tetrahydro-1,4-oxazepin-5-yl)-4-fluorophenyl)-5-cyanopicolinamide], the results for the IC50 (in the assay with Aβ40; in assay [1]) were 0.7 nM and 30.5 nM, respectively.
On the same counts, the results for `C[C@]1(c2cc(NC(=O)c3ncccc3OCC(F)(F)F)ccc2F)N=C(N)COC[C@@H]1F` [Example 112, N-(3-((5R,6R)-3-amino-6-fluoro-5-methyl-2,5,6,7-tetrahydro-1,4-oxazepin-5-yl)-4-fluorophenyl)-3-(2,2,2-trifluoroethoxy)picolinamide] are 69 nM and 129 nM.
Consider `CC1(C)C[C@@](C)(c2cc(NC(=O)C3(C(F)(F)F)CC3)ccc2F)N=C(N)CO1` [Example 20, 1-Trifluoromethyl-cyclopropanecarboxylic acid [3-((S)-3-amino-5,7,7-trimethyl-2,5,6,7-tetrahydro-[1,4]oxazepin-5-yl)-4-fluoro-phenyl]-amide], for which the figures for the IC50 (in the assay with Aβ40; in assay [1]) were 220 nM and 38 nM, respectively.
As to `C[C@]1(c2cc(NC(=O)c3ccc(C(F)F)cn3)ccc2F)N=C(N)COCC1(F)F` [Example 108, (R)-N-(3-(3-Amino-6,6-difluoro-5-methyl-2,5,6,7-tetrahydro-1,4-oxazepin-5-yl)-4-fluorophenyl)-5-(difluoromethyl)picolinamide formate], the IC50 in the assay on Aβ40 came to 5.7 nM; in assay [1], 49.5 nM.
Consider `C[C@@]1(c2cc(NC(=O)c3ccccn3)ccc2F)CCOCC(N)=N1` [Example 7, Pyridine-2-carboxylic acid [3-((S)-3-amino-5-methyl-2,5,6,7-tetrahydro-[1,4]oxazepin-5-yl)-4-fluoro-phenyl]-amide], for which the IC50 was 16 nM in the assay on Aβ40 and 1.45 nM in assay [1].
On the same counts, the results for `CC[C@@]1(c2cc(NC(=O)c3ccc(F)cn3)ccc2F)CCOCC(N)=N1` [Example 13, 5-Fluoro-pyridine-2-carboxylic acid [3-((S)-3-amino-5-ethyl-2,5,6,7-tetrahydro-[1,4]oxazepin-5-yl)-4-fluoro-phenyl]-amide] are 250 nM and 44 nM.
In the case of `CC1(C)OCCC(C)(c2cc(NC(=O)c3ccc(F)cn3)ccc2F)N=C1N` (stereo not shown) [Example 28, 5-Fluoro-pyridine-2-carboxylic acid [3-(3-amino-2,2,5-trimethyl-2,5,6,7-tetrahydro-[1,4]oxazepin-5-yl)-4-fluoro-phenyl]-amide], the IC50 was determined as 340 nM in the assay on Aβ40 and 130 nM in assay [1].
As for `Cn1ccc(C(=O)Nc2ccc(F)c([C@@]3(C)N=C(N)COCC3(F)F)c2)n1` [Example 43, (R)-N-(3-(3-amino-6,6-difluoro-5-methyl-2,5,6,7-tetrahydro-1,4-oxazepin-5-yl)-4-fluorophenyl)-1-methyl-1H-pyrazole-3-carboxamide formate], the values for the IC50 (in the assay with Aβ40; in assay [1]) were 23 nM and 4.7 nM, respectively.
In the case of `NC1=N[C@@]2(c3cccc(NC(=O)c4ccc(Cl)cn4)c3)C[C@H]2COC1` (racemic) [Example 3, 5-Chloro-pyridine-2-carboxylic acid [3-((1SR,7RS)-3-amino-5-oxa-2-aza-bicyclo[5.1.0]oct-2-en-1-yl)-phenyl]-amide], the half-maximal inhibitory concentration (IC50) with Aβ40 worked out at 34 nM; in assay [1], 245 nM.
The matching figures for `C[C@]1(c2cc(NC3CCCC3)ccc2F)N=C(N)COC[C@@H]1F` [Example 65, (5R,6R)-5-(5-(cyclopentylamino)-2-fluorophenyl)-6-fluoro-5-methyl-2,5,6,7-tetrahydro-1,4-oxazepin-3-amine]: 48 nM and 56 nM.
`C[C@@]1(c2cc(NC(=O)C3(C(F)(F)F)CC3)ccc2F)CCOCC(N)=N1` [Example 17, 1-Trifluoromethyl-cyclopropanecarboxylic acid [3-((S)-3-amino-5-methyl-2,5,6,7-tetrahydro-[1,4]oxazepin-5-yl)-4-fluoro-phenyl]-amide]: the IC50 with Aβ40 was 920 nM; in assay [1] it was 400 nM.
In the case of `C[C@]1(c2cc(NC(=O)c3ncccc3F)ccc2F)N=C(N)COCC1(F)F` [Example 27, (R)-N-(3-(3-amino-6,6-difluoro-5-methyl-2,5,6,7-tetrahydro-1,4-oxazepin-5-yl)-4-fluorophenyl)-3-fluoropicolinamide, salt with formic acid], the IC50 with Aβ40 is 44 nM; in assay [1], 58 nM.
Consider `CC[C@]1(c2cc(NC(=O)c3ncccc3Cl)ccc2F)N=C(N)COCC1(F)F` [Example 76, (R)-N-(3-(3-Amino-5-ethyl-6,6-difluoro-2,5,6,7-tetrahydro-1,4-oxazepin-5-yl)-4-fluorophenyl)-3-chloropicolinamide], for which the IC50 with Aβ40 is 4 nM; in assay [1], 568 nM.
Take `C[C@]1(c2cc(NC(=O)c3cnc(C(F)(F)F)cn3)ccc2F)N=C(N)COCC1(F)F` [Example 101, (R)-N-(3-(3-Amino-6,6-difluoro-5-methyl-2,5,6,7-tetrahydro-1,4-oxazepin-5-yl)-4-fluorophenyl)-5-(trifluoromethyl)pyrazine-2-carboxamide formate]: the IC50 with Aβ40 came to 12 nM; in assay [1] it was 1110 nM.
`C[C@]1(c2cc(NC(=O)c3ncc(Cl)cn3)ccc2F)N=C(N)COCC1(F)F` [Example 46, 5-Chloro-pyrimidine-2-carboxylic acid [3-((R)-3-amino-6,6-difluoro-5-methyl-2,5,6,7-tetrahydro-[1,4]oxazepin-5-yl)-4-fluoro-phenyl]-amide]: the results for the IC50 (with Aβ40; in assay [1]) were 1.7 nM and 6.5 nM, respectively.
The matching figures for `CCc1ocnc1C(=O)Nc1ccc(F)c([C@@]2(C)N=C(N)COCC2(F)F)c1` [Example 99, (R)-N-(3-(3-Amino-6,6-difluoro-5-methyl-2,5,6,7-tetrahydro-1,4-oxazepin-5-yl)-4-fluorophenyl)-5-ethyloxazole-4-carboxamide]: 130 nM and 118 nM.
With `C[C@]1(c2cc(NC(=O)c3nn(C(F)F)cc3Cl)ccc2F)N=C(N)COCC1(F)F` [Example 114, (R)-N-(3-(3-Amino-6,6-difluoro-5-methyl-2,5,6,7-tetrahydro-1,4-oxazepin-5-yl)-4-fluorophenyl)-4-chloro-1-(difluoromethyl)-1H-pyrazole-3-carboxamide], the IC50 in the assay on Aβ40 was found to be 4.9 nM; in assay [1], 9.68 nM.

As a reminder, the IC50 is the point on the concentration scale where inhibition reaches its midpoint.

The record behind these values is patent US8673894B2 (Hoffmann-La Roche Inc., priority 2010, dated 2014).
